Test results as given in patent US10420758B2, “Indolinyl-sulfonamide inhibitors of tankyrase and methods of use thereof” (The Board of Regents of the University of Texas System, priority 2015, dated 2019).

Key:
[1] = system: HeLa cells; test: Terminal restriction fragment (TRF) telomere length assay; assay type: cell-based, human; conditions: up to 40 population doublings, FIGS. 6A-B
Experimental: FIGS. 6A-6C show Tnks inhibitors but not a Porcn inhibitor induce telomeric shortening. […] HeLa cells were incubated with IWR-1, IWR-8, or IWP-6 at various concentrations for the indicated number of population doublings (PD) and telomere length measured by terminal restriction fragment (TRF) analysis. Density of radioprobe hybridization relative to the vertical distance from the largest molecular weight marker was quantified using ImageJ and the point of highest density in each lane marked by a dark line. Position of control telomere restricted fragment signal is indicated with dotted line. Lanes with insufficient strength in labeling or that were disrupted with blemishes during experimental processing were not quantified. […] The same assay described in “A” was used to test the Porcn inhibitor IWP-2. (FIG. 6C) Model of Tnks-dependent regulation of Wnt/β-catenin transcriptional and telomere length maintenance in human cells. Excessive Terf1 binding to DNA in the absence of Tnks-mediated Terf1 parsylation results in replication fork stalling in telomeres (Munoz, et al., 2009; Ohki and Ishikawa, 2004) which then presumably results in telomere shortening. […]
1×10^6 cells were collected and washed with PBS. […] Gels were exposed to a Phosphorlmager screen overnight and analyzed using a Typhoon Phosphorlmager scanner system (Molecular Dynamics). […]

[2] = target: T1, PARP15 (Homo sapiens, UniProt Q460N3); test: PARP profiling, parsylation of immobilized histone; assay type: biochemical
T1 sequence (Q460N3 1-678): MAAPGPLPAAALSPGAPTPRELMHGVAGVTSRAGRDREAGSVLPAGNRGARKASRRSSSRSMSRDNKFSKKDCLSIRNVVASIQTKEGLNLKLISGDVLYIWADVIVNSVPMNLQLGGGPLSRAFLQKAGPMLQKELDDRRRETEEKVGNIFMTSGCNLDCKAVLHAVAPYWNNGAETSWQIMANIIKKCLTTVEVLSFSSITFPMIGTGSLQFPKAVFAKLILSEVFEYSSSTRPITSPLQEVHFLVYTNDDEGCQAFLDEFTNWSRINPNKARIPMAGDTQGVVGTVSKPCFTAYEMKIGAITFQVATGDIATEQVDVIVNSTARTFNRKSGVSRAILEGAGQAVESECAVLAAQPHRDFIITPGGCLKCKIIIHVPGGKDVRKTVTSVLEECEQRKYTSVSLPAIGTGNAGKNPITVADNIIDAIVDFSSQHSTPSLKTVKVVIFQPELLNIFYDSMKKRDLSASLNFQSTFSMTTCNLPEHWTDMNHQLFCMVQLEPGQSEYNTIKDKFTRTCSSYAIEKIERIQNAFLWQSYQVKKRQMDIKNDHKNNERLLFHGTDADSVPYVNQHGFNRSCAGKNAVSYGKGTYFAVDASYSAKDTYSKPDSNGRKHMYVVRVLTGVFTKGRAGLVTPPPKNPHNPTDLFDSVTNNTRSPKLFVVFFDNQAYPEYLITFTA
Experimental: (§1) Performed by BPS Bioscience Inc., San Diego by following the BPS PARP or TNKS assay kit protocols. The enzymatic reactions were conducted in duplicate at room temperature for 1 hr in a 96 well plate coated with histone substrate. […] of reaction buffer (Tris.HCl, pH 8.0) contains NAD^+, biotinylated NAD^+, activated DNA, recombinant PARP enzyme and 10 μM of the test compound. […] After enzymatic reactions, 50 μL of Streptavidin-horseradish peroxidase was added to each well and the plate was incubated at room temperature for an additional 30 min. 100 μL of developer reagents were added to wells and luminescence was measured using a BioTek Synergy™ 2 microplate reader.

[3] = target: T2, PARP8 (Homo sapiens, UniProt Q8N3A8); test: PARP profiling, parsylation of immobilized histone; assay type: biochemical
T2 sequence (Q8N3A8 1-854): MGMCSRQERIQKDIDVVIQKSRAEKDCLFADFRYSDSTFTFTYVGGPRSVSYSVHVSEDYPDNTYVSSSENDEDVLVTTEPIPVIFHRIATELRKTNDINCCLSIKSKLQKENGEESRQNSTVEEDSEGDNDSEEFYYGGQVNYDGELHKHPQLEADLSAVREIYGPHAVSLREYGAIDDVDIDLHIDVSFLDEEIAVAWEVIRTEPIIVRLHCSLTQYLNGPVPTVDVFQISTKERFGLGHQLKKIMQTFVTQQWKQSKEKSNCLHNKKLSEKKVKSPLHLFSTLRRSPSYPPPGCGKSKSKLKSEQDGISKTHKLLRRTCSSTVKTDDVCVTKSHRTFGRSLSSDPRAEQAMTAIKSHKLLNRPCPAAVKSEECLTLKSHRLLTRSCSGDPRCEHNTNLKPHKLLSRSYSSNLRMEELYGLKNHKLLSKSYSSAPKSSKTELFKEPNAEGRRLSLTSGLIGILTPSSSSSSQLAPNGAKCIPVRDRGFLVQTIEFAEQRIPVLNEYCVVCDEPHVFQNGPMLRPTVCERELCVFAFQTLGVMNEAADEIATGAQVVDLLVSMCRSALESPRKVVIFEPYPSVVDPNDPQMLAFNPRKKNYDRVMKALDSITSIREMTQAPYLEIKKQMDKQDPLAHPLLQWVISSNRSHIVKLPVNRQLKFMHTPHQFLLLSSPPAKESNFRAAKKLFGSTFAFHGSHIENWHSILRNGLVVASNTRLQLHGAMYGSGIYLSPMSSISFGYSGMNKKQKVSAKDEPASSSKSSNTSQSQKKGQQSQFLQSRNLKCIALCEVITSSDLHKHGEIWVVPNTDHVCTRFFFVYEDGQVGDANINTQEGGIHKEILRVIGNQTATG
Experimental: as §1

Row | Compound | telomere length [1] | % inhibition ([2]; IWR compounds 10 μM) [%] | % inhibition ([3]; IWR compounds 10 μM) [%] | inhibition at 10 µM ([2]; IWR compounds 10 μM) [%] | inhibition at 10 µM ([3]; IWR compounds 10 μM) [%] | inhibition at 0.02 µM [2] [%] | inhibition at 0.02 µM [3] [%]
1 | O=C(Nc1cccc2cccnc12)c1ccc(N2C(=O)[C@@H]3[C@H](C2=O)[C@@H]2C=C[C@H]3C2)cc1 [IWR-1] | induced shortened telomere length in a dose-dependent manner | 0 | 1 |  |  |  | 
2 | CCN(C(=O)C1CCN(S(=O)(=O)c2cc3c(cc2Br)CCN3C(C)=O)CC1)c1cccc(C)c1 [IWR-8] | induced shortened telomere length in a dose-dependent manner |  |  | 0 | 0 |  | 
3 | O=C(c1cc(Cc2n[nH]c(=O)c3ccccc23)ccc1F)N1CCN(C(=O)C2CC2)CC1 [Olaparib] |  |  |  |  |  | 82 | 96
